Measured values from patent EP4786487A1, “PEPTIDE” (Peptidream Inc, priority 2023, dated 2025).
Like-named read-outs stand apart in the source and are kept apart here. Starred links: 1 amine or outer side, 2 acyl side, 3 side chain; linkers in the order of their positions; H or OH if unused. Positions of bridges follow the written chain, without caps; N, C: chain ends. Non-standard residues stand in square brackets, D forms with d. Residues, ends and D or L forms follow the SMILES beside them. X13 = O=C(O)c1ccc(-n2cc(C[C@H](N[*:1])C(=O)[*:2])c3ccccc32)cc1; X8 = COc1ccc(-n2cc(C[C@H](N[*:1])C(=O)[*:2])c3ccccc32)cc1; Phe(3-OCH2COOH) = N[C@@H](Cc1cccc(OCC(=O)O)c1)C(=O)O; Trp(1-Ph) = N[C@@H](Cc1cn(-c2ccccc2)c2ccccc12)C(=O)O; NMePhe(4-CH2NH2) = CN[C@@H](Cc1ccc(CN)cc1)C(=O)O; Trp(6-OH) = N[C@@H](Cc1c[nH]c2cc(O)ccc12)C(=O)O; Phe(4-COOH) = N[C@@H](Cc1ccc(C(=O)O)cc1)C(=O)O; Gly(N(CH2)3COOH) = O=C(O)CCCNCC(=O)O; Gly(octyl) = CCCCCCCC[C@H](N)C(=O)O; X1 = CCCCCCC[C@H](N[*:1])C(=O)[*:2]; Gly(N-(CH2)3OMe) = COCCCNCC(=O)O; NMeF = CN[C@@H](Cc1ccccc1)C(=O)O; NMeE = CN[C@@H](CCC(=O)O)C(=O)O; NMeA = CN[C@@H](C)C(=O)O; Sar = CNCC(=O)O

How the values were obtained:
GDF-11 = target: T1, GDF-11 (Homo sapiens, UniProt O95390); assay: HepG2 reporter gene assay, Evaluation Procedure (2): 2-concentrations assay, GDF-11 inhibition; format: cell-based; details: read-out: inhibition rate (GDF-11 inhibition assay)
T1 construct: purchased R&D systems 1958-GD-G8/CF
T1 sequence (O95390 299-407): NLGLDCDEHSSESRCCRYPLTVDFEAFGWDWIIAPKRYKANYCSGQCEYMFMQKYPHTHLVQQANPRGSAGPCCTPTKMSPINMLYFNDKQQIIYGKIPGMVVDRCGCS
Summary of the method: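 HepG2 cells carrying the transfected pGL3(CAGA)12-luc reporter, a pGL3 vector with luciferase placed downstream of 12 CAGA repeats, were stimulated with GDF-11 at a final 10 ng/mL together with test peptide. Blank wells received no GDF-11 and no peptide. Plates were incubated 20 to 24 hours at 37°C with 5% CO2. Luminescence from One-Glo substrate was read to calculate percent inhibition.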

Myostatin = target: T2, Myostatin (Homo sapiens, UniProt O14793); assay: HepG2 reporter gene assay, Evaluation Procedure (2): 2-concentrations assay, myostatin inhibition; format: cell-based; details: Table 7-3/7-4, myostatin 10 ng/mL, HepG2, read-out: inhibition rate (myostatin inhibition assay); for inhibition at 0.1 µM: peptide at the higher of the 2 concentrations; for inhibition at 0.03 µM: peptide at the lower of the 2 concentrations
T2 construct: active myostatin (also called mature myostatin) is a homodimer consisting of two C-terminal growth factor domains; purchased R&D systems 788-G8/CF
T2 sequence (O14793 267-375): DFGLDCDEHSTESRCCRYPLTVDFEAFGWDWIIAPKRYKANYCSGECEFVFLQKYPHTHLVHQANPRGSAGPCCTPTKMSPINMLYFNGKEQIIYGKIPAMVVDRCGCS
Summary of the method: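 HepG2 cells (HB-8065, ATCC) carrying the transfected pGL3(CAGA)12-luc reporter plasmid were treated with myostatin (788-G8/CF, R&D systems) at a final concentration of 10 ng/mL plus peptide and incubated at 37°C, 5% CO2 for 20 to 24 hours. Luminescence was read after adding PBS mixed 1:1 with One-Glo substrate, and inhibition rate was calculated.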

[1] = HepG2, first GDF-11 column of Table 7-3/7-4, GDF-11 10 ng/mL, peptide at the lower of the 2 concentrations
[2] = HepG2, second GDF-11 column of Table 7-3/7-4, GDF-11 10 ng/mL, peptide at the higher of the 2 concentrations

inhibition (GDF-11; [1]) [%] | inhibition (GDF-11; [2]) [%] | inhibition at 0.1 µM (Myostatin) [%] | inhibition at 0.03 µM (Myostatin) [%] | SMILES
0 | 0 | 100 | 100 | CCCCCCC[C@@H]1NC(=O)[C@H](Cc2ccccc2)N(C)C(=O)[C@H](CCCNC(=N)N)NC(=O)[C@H](Cc2ccc(C(=O)O)cc2)NC(=O)[C@H](Cc2cccc(OCC(=O)O)c2)NC(=O)[C@H](C)N(C)C(=O)[C@H]([C@@H](C)CC)NC(=O)[C@H](Cc2ccccc2)N(C)C(=O)[C@H](Cc2ccc(O)cc2)NC(=O)[C@H](Cc2cn(-c3ccc(OC)cc3)c3ccccc23)NC(=O)[C@H](C)NC(=O)CN(CCCC(=O)O)C(=O)CSC[C@H](C(=O)O)NC(=O)[C@H](Cc2ccccc2)N(C)C(=O)[C@H](C)N(C)C1=O [Myostatin_99_v379] ({CH2CO}-[Gly(N(CH2)3COOH)]A[X8]Y[NMeF]I[NMeA][Phe(3-OCH2COOH)][Phe(4-COOH)]R[NMeF][X1][NMeA][NMeF][dC]-OH; thioether N-15)
0 | 0 | 100 | 100 | CCCCCCC[C@@H]1NC(=O)[C@H](Cc2ccccc2)N(C)C(=O)[C@H](CCCNC(=N)N)NC(=O)[C@H](Cc2ccc(C(=O)O)cc2)NC(=O)[C@H](Cc2cccc(OCC(=O)O)c2)NC(=O)[C@H](C)N(C)C(=O)[C@H]([C@@H](C)CC)NC(=O)[C@H](Cc2ccccc2)N(C)C(=O)[C@H](Cc2ccc(O)cc2)NC(=O)[C@H](Cc2cn(-c3ccccc3)c3ccccc23)NC(=O)[C@H](C)NC(=O)CN(CCCC(=O)O)C(=O)CSC[C@H](C(=O)O)NC(=O)[C@H](Cc2ccccc2)N(C)C(=O)[C@H](C)N(C)C1=O [Myostatin_99_v380] ({CH2CO}-[Gly(N(CH2)3COOH)]A[Trp(1-Ph)]Y[NMeF]I[NMeA][Phe(3-OCH2COOH)][Phe(4-COOH)]R[NMeF][X1][NMeA][NMeF][dC]-OH; thioether N-15)
0 | 44 | 100 | 100 | CCCCCCCC[C@@H]1NC(=O)[C@H](Cc2ccccc2)N(C)C(=O)[C@H](CCCNC(=N)N)NC(=O)[C@H](Cc2ccc(C(=O)O)cc2)NC(=O)[C@H](Cc2cccc(OCC(=O)O)c2)NC(=O)CN(C)C(=O)[C@H]([C@@H](C)CC)NC(=O)[C@H](Cc2ccccc2)N(C)C(=O)[C@H](Cc2ccc(O)cc2)NC(=O)[C@H](Cc2c[nH]c3cc(O)ccc23)NC(=O)[C@H](C)NC(=O)CN(CCCOC)C(=O)CSC[C@H](C(N)=O)NC(=O)[C@H](Cc2ccccc2)N(C)C(=O)[C@H](C)N(C)C1=O [Myostatin_99_v414] ({CH2CO}-[Gly(N-(CH2)3OMe)]A[Trp(6-OH)]Y[NMeF]I[Sar][Phe(3-OCH2COOH)][Phe(4-COOH)]R[NMeF][Gly(octyl)][NMeA][NMeF][dC]-NH2; thioether N-15)
0 | 0 | 100 | 100 | CCCCCCC[C@@H]1NC(=O)[C@@H]2Cc3ccc(cc3)CNC(=O)CC[C@@H](C(=O)N[C@@H](C)C(=O)N[C@@H](Cc3cn(-c4ccc(C(=O)O)cc4)c4ccccc34)C(=O)N[C@@H](Cc3ccc(O)cc3)C(=O)N(C)[C@@H](Cc3ccccc3)C(=O)N[C@@H]([C@@H](C)CC)C(=O)N3CCC[C@@H]3C(=O)N[C@@H](Cc3cccc(OCC(=O)O)c3)C(=O)N[C@@H](Cc3ccc(C(=O)O)cc3)C(=O)N[C@@H](CCCNC(=N)N)C(=O)N2C)N(C)C(=O)CSC[C@H](C(=O)O)NC(=O)[C@H](Cc2ccccc2)N(C)C(=O)[C@H](C)N(C)C1=O [Myostatin_99_v423] ({CH2CO}-[NMeE]A[X13]Y[NMeF]I[dP][Phe(3-OCH2COOH)][Phe(4-COOH)]R[NMePhe(4-CH2NH2)][X1][NMeA][NMeF][dC]-OH; lactam 1-11; thioether N-15)
